Laboratory results: US6887899B1, “Method for controlling house dust mites with a composition comprising phenylethyl propionate” (Ecosmart Technologies, Inc., priority 1999, dated 2005)

Test system: American home dust mites
Assay: Efficacy of plant essential oils (actives) against dust mite, residue on glass petri dish
Text: Efficacy of different plant essential oils (actives) against dust mite
Two different concentrations of each test actives were used
50 dust mites (American home dust mites) were used per replicate. Four replicates were used per test concentration
Chemicals were applied to the surface of 100 mm glass petri dish in acetone. The control plates received same volume of solvent (acetone) only. All plates left at room temperature for air dry. After 1 hr (complete evaporation of acetone) the dust mites were transferred to each plate.
test actives were tested with and without 2 parts of piperonyl butoxide (PBO), known synergist.
Data are the mean of four replicates (200 dust mites per test concentration per chemical)

[1] = 25 ppm, 5 min, W/PBO (2 parts piperonyl butoxide)
[2] = 25 ppm, 15 min, W/PBO (2 parts piperonyl butoxide)
[3] = 25 ppm, 60 min, W/PBO (2 parts piperonyl butoxide)
[4] = 250 ppm, 5 min, W/PBO (2 parts piperonyl butoxide)

Structure (SMILES) | % Mortality (25 ppm, 5 min, W/O PBO) [%] | % Mortality [1] [%] | % Mortality (25 ppm, 15 min, W/O PBO) [%] | % Mortality [2] [%] | % Mortality (25 ppm, 60 min, W/O PBO) [%] | % Mortality [3] [%] | % Mortality (250 ppm, 5 min, W/O PBO) [%] | % Mortality [4] [%] | % Mortality (250 ppm, 15 min, W/O PBO) [%] | % Mortality (250 ppm, 60 min, W/O PBO) [%] | % Mortality (250 ppm, 15 min, W/PBO (2 parts piperonyl butoxide)) [%] | % Mortality (250 ppm, 60 min, W/PBO (2 parts piperonyl butoxide)) [%]
OCc1ccccc1 [BA, Benzyl Alcohol] | 53 | 68 | 61.0 | 73.0 | 68.0 | 79.0 | 90 | 100 | 98 | 100 |  | 
CCC(=O)OCCc1ccccc1 [PEP, phenethyl propionate] | 54 | 63 | 60.0 | 69.0 | 62.0 | 78.0 | 80 | 97 | 92 | 99 | 99 | 100
Cc1ccc(C(C)C)c(O)c1 [thymol] | 67 | 80 | 72.2 | 85.0 | 80.0 | 87.5 | 100 | 100 |  |  |  | 
